Reference: ChEMBL document CHEMBL1629598, “Statistical model to evaluate in vivo activities of antimalarial drugs in a Plasmodium cynomolgi-macaque model for Plasmodium vivax malaria” (2009)
Calls of active or inactive are those of the source. The rule behind the calls is not given here.

Tests used:
[1] = test system: Plasmodium cynomolgi; experiment: Antimalarial activity against blood-stage of Plasmodium cynomolgi M infected in rhesus macaque assessed as reduction of peak parasitemia days at 40 mg/kg, po qd for 8 consecutive days; assay type: functional
[2] = test system: Plasmodium cynomolgi; experiment: Antimalarial activity against blood-stage of Plasmodium cynomolgi M infected in rhesus macaque assessed as complete cure at 40 mg/kg, po qd after 4 days; assay type: functional, organism-based; parameters: dose 40 mg/kg
[3] = test system: Plasmodium cynomolgi; experiment: Antimalarial activity against blood-stage of Plasmodium cynomolgi M infected in rhesus macaque assessed as reduction of parasitemia at 40 mg/kg, po qd for 8 consecutive days (reference value: 4.7%); assay type: functional; parameters: scale not given: the % may be the effect or the level left
[4] = test system: Plasmodium cynomolgi; experiment: Antimalarial activity against blood-stage of Plasmodium cynomolgi M infected in rhesus macaque assessed as reduction of peak parasitemia days at 3 mg/kg, po qd for 4 consecutive days; assay type: functional
[5] = test system: Plasmodium cynomolgi; experiment: Antimalarial activity against blood-stage of Plasmodium cynomolgi M infected in rhesus macaque assessed as reduction of peak parasitemia days at 3 to 27 mg/kg, po qd for 4 consecutive days; assay type: functional; settings: dose mg/kg 3-27
[6] = test system: Plasmodium cynomolgi; experiment: Antimalarial activity against blood-stage of Plasmodium cynomolgi M infected in rhesus macaque assessed as reduction of parasitemia days at 3 mg/kg, po qd after 4 to 5 days; assay type: functional, organism-based; parameters: dose 3 mg/kg
[7] = test system: Plasmodium cynomolgi; experiment: Antimalarial activity against blood-stage of Plasmodium cynomolgi M infected in rhesus macaque assessed as reduction of parasitemia at 3 to 27 mg/kg, po qd for 8 consecutive days (reference value: 3%); assay type: functional; parameters: scale not given: the % may be the effect or the level left; settings: dose mg/kg 3-27
[8] = test system: Plasmodium cynomolgi; experiment: Antimalarial activity against blood-stage of Plasmodium cynomolgi M infected in rhesus macaque assessed as reduction of parasitemia days at 9 mg/kg, po qd after 4 to 5 days; assay type: functional, organism-based; parameters: dose 9 mg/kg
[9] = test system: Plasmodium cynomolgi; experiment: Antimalarial activity against blood-stage of Plasmodium cynomolgi M infected in rhesus macaque assessed as reduction of parasitemia days at 27 mg/kg, po qd after 4 to 5 days; assay type: functional, organism-based; parameters: dose 27 mg/kg
[10] = test system: Plasmodium cynomolgi; experiment: Antimalarial activity against blood-stage of Plasmodium cynomolgi M infected in rhesus macaque assessed as reduction of peak parasitemia days at 9 mg/kg, po qd for 4 consecutive days; assay type: functional
[11] = test system: Plasmodium cynomolgi; experiment: Antimalarial activity against blood-stage of Plasmodium cynomolgi M infected in rhesus macaque assessed as reduction of peak parasitemia days at 27 mg/kg, po qd for 4 consecutive days; assay type: functional
[12] = test system: Plasmodium cynomolgi; experiment: Antimalarial activity against blood-stage of Plasmodium cynomolgi M infected in rhesus macaque assessed as reduction of parasitemia administered intramuscularly twice daily for 8 consecutive days measured on day 28 (reference value: 6.1%); assay type: functional; parameters: scale not given: the % may be the effect or the level left
[13] = test system: Plasmodium cynomolgi; experiment: Antimalarial activity against blood-stage of Plasmodium cynomolgi M infected in rhesus macaque assessed as reduction of peak parasitemia days administered intramuscularly twice daily measured after 2nd dose (reference value: 3.5%); assay type: functional
[14] = test system: Plasmodium cynomolgi; experiment: Antimalarial activity against blood-stage of Plasmodium cynomolgi M infected in rhesus macaque assessed as reduction of peak parasitemia administered intramuscularly twice daily measured on day 3; assay type: functional, organism-based

SMILES: COCC/C(SC(=O)c1ccc(CN2CCOCC2)cc1)=C(\C)N(C=O)CCCCCCCCCCCCN(C=O)/C(C)=C(/CCOC)SC(=O)c1ccc(CN2CCOCC2)cc1.O=C(O)C(O)C(O)C(=O)O
- Time [1]: 1 days
- Activity [2]: Active
- Activity [3]: 1.5%

SMILES: C/C(=C1\CCOC(=O)S1)N(C=O)CCCCCCCCCCCCN(C=O)/C(C)=C1/CCOC(=O)S1
- Time [4]: 2 days
- Time [5]: 1.9 days
- Activity [6]: Active
- Activity [7]: 0.6%
- Activity [8]: Active
- Activity [9]: Active
- Time [10]: 1.7 days
- Time [11]: 1.6 days

SMILES: C[N+]1(CCCCCCCCCCCCCCCC[N+]2(C)CCCC2)CCCC1.[Br-].[Br-]
- Activity [12]: 0.5%
- Time [13]: 0.7 days
- Activity [14]: Active
